From patent US7119075B2, “Use of herbal agents for potentiation of bioefficacy of anti infectives” (priority 2003, dated 2006) come the findings set out here.

Assay [1] has as its system Gram negative bacteria. As to the kind of experiment: organism not typed. The class given is cell-based. To be noted: for MIC: read-out: MIC Drug alone.
Assay [2] relates to Gram positive bacteria. As to the kind of experiment: organism not typed. The assay is classed as cell-based. To be noted: for MIC: read-out: MIC Drug alone.
Assay [3] deals with Yeast. Briefly: MIC of drugs alone and with bioenhancer (Table 7). The class given is cell-based. To be noted: for MIC: Saccharomyces cerevisiae, read-out: MIC Drug alone.
Assay [4] concerns M. tuberculosis. As to the kind of experiment: MIC of drugs alone and with bioenhancer (Table 7). The assay is classed as cell-based. To be noted: for MIC: Mycobacterium tuberculosis, Drug alone.
Assay [5] concerns MRSA 15187. Briefly: microbe, parasite or virus in culture. To be noted: Staphylococcus aureus.
For assay [6], the system named is MRSA 450. As to the kind of experiment: microbe, parasite or virus in culture. To be noted: Staphylococcus aureus.
Assay [7] relates to Filamentous fungi. Briefly: organism not typed. The class given is cell-based.

≈ marks a conversion by molar mass, not a printed value.

For the compound `CO/N=C(\C(=O)N[C@@H]1C(=O)N2C(C(=O)O)=C(CSc3nc(=O)c(O)nn3C)CS[C@H]12)c1csc(N)n1` [Ceftrioxone], the entries for the “MIC Drug alone” value in assay [1] and in assay [2] were 0.03 to 32 µg/mL and 0.12 to 32 µg/mL, respectively.

As for `COCC1=C(C(=O)O)N2C(=O)[C@@H](NC(=O)/C(=N\OC)c3csc(N)n3)[C@H]2SC1` [Cefpedoxime], the “MIC Drug alone” value in assay [1] was 0.03 to 64 µg/mL; in assay [2] it was 0.12 to 16 µg/mL.

Regarding `OC(Cn1cncn1)(Cn1cncn1)c1ccc(F)cc1F` [Fluconazole], the MIC in assay [3] is 0.12 to 64 µg/mL.

For the compound `O=C(O)c1cn(C2CC2)c2cc(N3CCNCC3)c(F)cc2c1=O` [Ciprofloxacin], the MIC in assay [4] was 0.5 to 1 µg/mL; in assay [1], 0.03 to 0.5 µg/mL (≈ 0.0905 to 1.51 µM); in assay [5] it was 64 µg/mL (≈ 193 µM); in assay [6], 64 µg/mL (≈ 193 µM); in assay [2], 0.12 to 32 µg/mL (≈ 0.362 to 96.6 µM).

On to `CCn1cc(C(=O)O)c(=O)c2cc(F)c(N3CCNCC3)cc21` [Norfloxacin], for which the “MIC Drug alone” value in assay [1] lay within 0.03 to 64 µg/mL. Further, the MIC in assay [2] is 0.12 to 32 µg/mL (≈ 0.376 to 100 µM).

Take `C[C@@H]1[C@H](O)[C@@H](C)/C=C/C=C/C=C/C=C/C=C/C=C/C=C/[C@H](O[C@@H]2O[C@H](C)[C@@H](O)[C@H](N)[C@@H]2O)C[C@@H]2O[C@](O)(C[C@@H](O)C[C@@H](O)[C@H](O)CC[C@@H](O)C[C@@H](O)CC(=O)O[C@H]1C)C[C@H](O)[C@H]2C(=O)O` [Amphotericin B]: the figures for the “MIC Drug alone” value in assay [7] (Drug alone) and in assay [3] (Drug alone) were 0.25 to 4 µg/mL and 0.25 to 2.0 µg/mL, respectively.

`NCC[C@H](O)C(=O)N[C@@H]1C[C@H](N)[C@@H](O[C@H]2O[C@H](CN)[C@@H](O)[C@H](O)[C@H]2O)[C@H](O)[C@H]1O[C@H]1O[C@H](CO)[C@@H](O)[C@H](N)[C@H]1O` [Amikacin]: the MIC in assay [4] was 0.5 to 1 µg/mL; in assay [1], 0.12 to 4 µg/mL (≈ 0.205 to 6.83 µM); in assay [2], 2 to 32 µg/mL (≈ 3.42 to 54.6 µM).

Regarding `CC1COc2c(N3CCN(C)CC3)c(F)cc3c(=O)c(C(=O)O)cn1c23` (stereo not drawn) [Ofloxacin], the “MIC Drug alone” value in assay [4] was in the range of 0.5 to 25 µg/mL. The MIC in assay [4] fell in the range of 0.5 to 2.5 µg/mL; in assay [1], 0.06 to 32 µg/mL (≈ 0.166 to 88.6 µM); in assay [2], 0.12 to 32 µg/mL (≈ 0.332 to 88.6 µM).

For the compound `CC(=O)N1CCN(c2ccc(OCC3COC(Cn4ccnc4)(c4ccc(Cl)cc4Cl)O3)cc2)CC1` (stereo not drawn) [Ketoconazole], the results for the MIC in assay [7] (read-out: MIC Drug alone) and in assay [3] were 0.25 to 2 µg/mL (≈ 0.47 to 3.76 µM) and 0.12 to 0.5 µg/mL, respectively.

`C=CC1=C(C(=O)O)N2C(=O)[C@@H](NC(=O)/C(=N\O)c3csc(N)n3)[C@H]2SC1` [Cefdinir]: the MIC in assay [1] was 0.25 to 64 µg/mL (≈ 0.632 to 162 µM); in assay [2], 0.06 to 32 µg/mL (≈ 0.152 to 80.9 µM).

As for `N[C@@H](C(=O)N[C@@H]1C(=O)N2C(C(=O)O)=C(Cl)CS[C@H]12)c1ccccc1` [Cefaclor], the MIC lay within 0.25 to 64 µg/mL (≈ 0.68 to 174 µM) in assay [1] and 0.06 to 32 µg/mL (≈ 0.163 to 87 µM) in assay [2].
